{
  "source": "patent US12479847B2",
  "about": "(DANA-FARBER CANCER INSTITUTE, INC., priority 2019, dated 2025)",
  "assay_in_all_cases": "KINOMEscan (ScanMAX) kinase profiling",
  "type_in_all_cases": "binding",
  "key": {"[1]": {"biological_target": "T1, panel of 468 kinases (Homo sapiens, UniProt Q86V86)", "T1 construct": "purchased KINOMEscan (ScanMAX) service", "conditions": "PIM3; 1 μM; read-out: % control"}, "[2]": {"biological_target": "T2, panel of 468 kinases (Homo sapiens, UniProt Q8NEB9)", "T2 construct": "purchased KINOMEscan (ScanMAX) service", "T2 sequence (Q8NEB9 whole entry)": "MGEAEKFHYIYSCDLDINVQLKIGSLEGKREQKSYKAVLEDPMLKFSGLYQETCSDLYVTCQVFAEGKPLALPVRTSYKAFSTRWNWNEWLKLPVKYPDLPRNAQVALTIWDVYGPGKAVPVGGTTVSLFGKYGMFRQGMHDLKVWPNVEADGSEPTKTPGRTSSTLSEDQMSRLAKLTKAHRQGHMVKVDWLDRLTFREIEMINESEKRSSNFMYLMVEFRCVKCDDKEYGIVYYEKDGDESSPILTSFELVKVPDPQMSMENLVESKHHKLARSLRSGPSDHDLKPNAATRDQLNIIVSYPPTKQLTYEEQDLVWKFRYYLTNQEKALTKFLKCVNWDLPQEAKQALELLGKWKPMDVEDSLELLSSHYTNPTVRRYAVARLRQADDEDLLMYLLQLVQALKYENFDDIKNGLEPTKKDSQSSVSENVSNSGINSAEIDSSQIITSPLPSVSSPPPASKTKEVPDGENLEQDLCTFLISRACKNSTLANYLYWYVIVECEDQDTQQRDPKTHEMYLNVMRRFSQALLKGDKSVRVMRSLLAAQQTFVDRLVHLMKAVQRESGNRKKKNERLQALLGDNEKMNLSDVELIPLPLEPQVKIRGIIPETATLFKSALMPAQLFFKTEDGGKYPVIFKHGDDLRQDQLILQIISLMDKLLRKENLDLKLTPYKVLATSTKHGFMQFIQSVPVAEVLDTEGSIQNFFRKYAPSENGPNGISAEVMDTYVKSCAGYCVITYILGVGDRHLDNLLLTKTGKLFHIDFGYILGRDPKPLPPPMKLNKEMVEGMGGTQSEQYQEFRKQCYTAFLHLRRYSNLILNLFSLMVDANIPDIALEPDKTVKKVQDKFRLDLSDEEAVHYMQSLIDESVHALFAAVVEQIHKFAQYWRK", "conditions": "VPS34; 1 μM; read-out: % control"}, "[3]": {"biological_target": "T3, panel of 468 kinases (Homo sapiens, UniProt O60331)", "T3 construct": "purchased KINOMEscan (ScanMAX) service", "T3 sequence (O60331 whole entry)": "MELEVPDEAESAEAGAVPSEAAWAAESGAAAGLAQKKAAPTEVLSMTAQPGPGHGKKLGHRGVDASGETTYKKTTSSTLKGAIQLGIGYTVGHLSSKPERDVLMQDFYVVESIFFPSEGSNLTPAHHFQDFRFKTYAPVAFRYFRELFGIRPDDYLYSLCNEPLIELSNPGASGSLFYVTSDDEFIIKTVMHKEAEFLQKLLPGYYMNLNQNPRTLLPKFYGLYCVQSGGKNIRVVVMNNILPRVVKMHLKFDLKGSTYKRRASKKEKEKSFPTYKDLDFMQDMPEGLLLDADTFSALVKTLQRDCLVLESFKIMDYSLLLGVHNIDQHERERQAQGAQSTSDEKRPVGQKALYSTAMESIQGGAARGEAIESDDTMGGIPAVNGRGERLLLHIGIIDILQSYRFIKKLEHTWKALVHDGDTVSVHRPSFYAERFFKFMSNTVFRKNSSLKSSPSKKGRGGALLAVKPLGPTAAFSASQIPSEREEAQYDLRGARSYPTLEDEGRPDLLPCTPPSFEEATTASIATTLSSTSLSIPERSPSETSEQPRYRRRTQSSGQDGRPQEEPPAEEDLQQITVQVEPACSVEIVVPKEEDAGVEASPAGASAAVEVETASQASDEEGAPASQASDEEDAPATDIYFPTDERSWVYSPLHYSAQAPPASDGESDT", "conditions": "PIP5K1C; 1 μM; read-out: % control"}, "[4]": {"biological_target": "T4, panel of 468 kinases (Homo sapiens, UniProt P22455)", "T4 construct": "purchased KINOMEscan (ScanMAX) service", "T4 sequence (P22455 22-802)": "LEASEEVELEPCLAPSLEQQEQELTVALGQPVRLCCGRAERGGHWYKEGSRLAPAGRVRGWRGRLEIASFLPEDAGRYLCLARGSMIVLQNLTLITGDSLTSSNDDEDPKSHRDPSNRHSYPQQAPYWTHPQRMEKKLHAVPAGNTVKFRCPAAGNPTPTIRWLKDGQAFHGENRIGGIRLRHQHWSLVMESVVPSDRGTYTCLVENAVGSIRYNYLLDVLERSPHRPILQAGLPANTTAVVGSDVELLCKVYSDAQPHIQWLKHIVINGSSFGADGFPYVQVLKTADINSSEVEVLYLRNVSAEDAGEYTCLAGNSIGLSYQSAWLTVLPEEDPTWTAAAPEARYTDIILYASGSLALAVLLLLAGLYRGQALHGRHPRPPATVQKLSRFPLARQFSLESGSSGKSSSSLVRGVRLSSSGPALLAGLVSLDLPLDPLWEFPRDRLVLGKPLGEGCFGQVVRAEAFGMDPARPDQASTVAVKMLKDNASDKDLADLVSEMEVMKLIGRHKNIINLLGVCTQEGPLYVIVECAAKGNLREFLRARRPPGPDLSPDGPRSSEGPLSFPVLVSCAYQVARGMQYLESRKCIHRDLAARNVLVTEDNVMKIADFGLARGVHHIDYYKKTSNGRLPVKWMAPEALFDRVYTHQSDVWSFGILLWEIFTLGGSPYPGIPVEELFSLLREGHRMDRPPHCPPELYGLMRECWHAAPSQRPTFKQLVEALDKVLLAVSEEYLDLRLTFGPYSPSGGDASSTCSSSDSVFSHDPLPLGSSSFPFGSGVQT", "conditions": "FGFR4; 1 μM; read-out: % control"}, "[5]": {"biological_target": "T5, panel of 468 kinases (Homo sapiens, UniProt Q09013)", "T5 construct": "purchased KINOMEscan (ScanMAX) service", "T5 sequence (Q09013 1-629)": "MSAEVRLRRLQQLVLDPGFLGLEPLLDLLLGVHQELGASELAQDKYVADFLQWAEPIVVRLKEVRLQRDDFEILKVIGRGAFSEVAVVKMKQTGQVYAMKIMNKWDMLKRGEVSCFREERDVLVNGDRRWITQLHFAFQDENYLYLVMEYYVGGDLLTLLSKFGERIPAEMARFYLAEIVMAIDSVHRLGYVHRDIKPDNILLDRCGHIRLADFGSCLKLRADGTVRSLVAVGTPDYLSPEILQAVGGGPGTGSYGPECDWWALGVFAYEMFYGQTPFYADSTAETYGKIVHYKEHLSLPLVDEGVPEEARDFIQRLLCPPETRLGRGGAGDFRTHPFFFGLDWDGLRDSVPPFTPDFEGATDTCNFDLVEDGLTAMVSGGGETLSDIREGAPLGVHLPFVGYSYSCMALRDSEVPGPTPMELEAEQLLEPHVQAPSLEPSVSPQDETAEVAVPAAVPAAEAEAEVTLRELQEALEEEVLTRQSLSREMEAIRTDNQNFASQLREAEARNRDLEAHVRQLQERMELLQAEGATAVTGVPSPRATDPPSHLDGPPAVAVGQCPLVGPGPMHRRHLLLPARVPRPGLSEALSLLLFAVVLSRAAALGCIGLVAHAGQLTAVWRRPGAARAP", "conditions": "DMPK; 1 μM; read-out: % control"}, "[6]": {"biological_target": "T6, panel of 468 kinases (Homo sapiens, UniProt Q14012)", "T6 construct": "purchased KINOMEscan (ScanMAX) service", "T6 sequence (Q14012 whole entry)": "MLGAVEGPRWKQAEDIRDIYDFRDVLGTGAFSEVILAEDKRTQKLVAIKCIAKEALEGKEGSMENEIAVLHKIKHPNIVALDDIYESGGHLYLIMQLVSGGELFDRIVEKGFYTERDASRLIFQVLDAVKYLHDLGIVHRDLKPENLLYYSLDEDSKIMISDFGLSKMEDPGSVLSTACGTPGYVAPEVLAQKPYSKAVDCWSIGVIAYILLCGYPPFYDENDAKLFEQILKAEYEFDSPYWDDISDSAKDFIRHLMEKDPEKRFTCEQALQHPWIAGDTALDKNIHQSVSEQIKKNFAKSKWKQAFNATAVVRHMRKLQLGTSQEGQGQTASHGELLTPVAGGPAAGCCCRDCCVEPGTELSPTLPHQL", "conditions": "CAMK1; 1 μM; read-out: % control"}, "[7]": {"biological_target": "T7, panel of 468 kinases (Homo sapiens, UniProt Q6ZN16)", "T7 construct": "purchased KINOMEscan (ScanMAX) service", "T7 sequence (Q6ZN16 1-1313)": "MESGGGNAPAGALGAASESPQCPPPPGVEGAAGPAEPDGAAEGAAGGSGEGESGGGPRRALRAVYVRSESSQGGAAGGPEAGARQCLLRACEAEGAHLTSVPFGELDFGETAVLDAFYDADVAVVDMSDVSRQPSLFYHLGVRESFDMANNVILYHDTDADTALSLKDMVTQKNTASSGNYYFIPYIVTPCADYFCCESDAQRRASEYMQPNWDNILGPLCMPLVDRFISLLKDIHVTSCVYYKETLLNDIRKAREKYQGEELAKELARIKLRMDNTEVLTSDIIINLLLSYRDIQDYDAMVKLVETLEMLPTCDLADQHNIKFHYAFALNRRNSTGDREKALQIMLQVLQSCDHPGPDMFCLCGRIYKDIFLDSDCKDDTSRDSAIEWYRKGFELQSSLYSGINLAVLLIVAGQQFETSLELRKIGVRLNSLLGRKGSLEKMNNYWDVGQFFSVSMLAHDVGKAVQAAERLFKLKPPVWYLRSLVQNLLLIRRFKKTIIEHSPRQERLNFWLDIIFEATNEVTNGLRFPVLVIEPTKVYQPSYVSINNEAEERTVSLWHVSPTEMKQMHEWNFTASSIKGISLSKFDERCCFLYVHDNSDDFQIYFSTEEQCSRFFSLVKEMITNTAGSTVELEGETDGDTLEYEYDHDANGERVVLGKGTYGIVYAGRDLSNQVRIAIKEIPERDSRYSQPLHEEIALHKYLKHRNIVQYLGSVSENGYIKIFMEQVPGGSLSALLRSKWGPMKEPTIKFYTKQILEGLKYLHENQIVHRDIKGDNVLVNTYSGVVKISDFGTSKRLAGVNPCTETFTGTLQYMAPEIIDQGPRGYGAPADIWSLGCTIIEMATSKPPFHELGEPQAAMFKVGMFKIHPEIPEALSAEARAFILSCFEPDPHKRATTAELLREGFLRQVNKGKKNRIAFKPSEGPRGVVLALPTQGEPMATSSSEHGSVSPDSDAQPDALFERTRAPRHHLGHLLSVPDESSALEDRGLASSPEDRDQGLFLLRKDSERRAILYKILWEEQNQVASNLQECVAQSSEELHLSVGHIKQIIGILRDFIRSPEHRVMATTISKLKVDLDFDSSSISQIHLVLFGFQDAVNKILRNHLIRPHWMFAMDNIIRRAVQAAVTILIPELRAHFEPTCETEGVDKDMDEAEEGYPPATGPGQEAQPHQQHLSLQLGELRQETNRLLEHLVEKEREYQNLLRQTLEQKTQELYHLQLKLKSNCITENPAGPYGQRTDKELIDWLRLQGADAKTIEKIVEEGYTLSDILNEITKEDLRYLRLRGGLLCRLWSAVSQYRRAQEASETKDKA", "conditions": "MAP3K15; 1 μM; read-out: % control"}, "[8]": {"biological_target": "T8, panel of 468 kinases (Homo sapiens, UniProt P08581)", "T8 construct": "purchased KINOMEscan (ScanMAX) service", "T8 sequence (P08581 25-1390)": "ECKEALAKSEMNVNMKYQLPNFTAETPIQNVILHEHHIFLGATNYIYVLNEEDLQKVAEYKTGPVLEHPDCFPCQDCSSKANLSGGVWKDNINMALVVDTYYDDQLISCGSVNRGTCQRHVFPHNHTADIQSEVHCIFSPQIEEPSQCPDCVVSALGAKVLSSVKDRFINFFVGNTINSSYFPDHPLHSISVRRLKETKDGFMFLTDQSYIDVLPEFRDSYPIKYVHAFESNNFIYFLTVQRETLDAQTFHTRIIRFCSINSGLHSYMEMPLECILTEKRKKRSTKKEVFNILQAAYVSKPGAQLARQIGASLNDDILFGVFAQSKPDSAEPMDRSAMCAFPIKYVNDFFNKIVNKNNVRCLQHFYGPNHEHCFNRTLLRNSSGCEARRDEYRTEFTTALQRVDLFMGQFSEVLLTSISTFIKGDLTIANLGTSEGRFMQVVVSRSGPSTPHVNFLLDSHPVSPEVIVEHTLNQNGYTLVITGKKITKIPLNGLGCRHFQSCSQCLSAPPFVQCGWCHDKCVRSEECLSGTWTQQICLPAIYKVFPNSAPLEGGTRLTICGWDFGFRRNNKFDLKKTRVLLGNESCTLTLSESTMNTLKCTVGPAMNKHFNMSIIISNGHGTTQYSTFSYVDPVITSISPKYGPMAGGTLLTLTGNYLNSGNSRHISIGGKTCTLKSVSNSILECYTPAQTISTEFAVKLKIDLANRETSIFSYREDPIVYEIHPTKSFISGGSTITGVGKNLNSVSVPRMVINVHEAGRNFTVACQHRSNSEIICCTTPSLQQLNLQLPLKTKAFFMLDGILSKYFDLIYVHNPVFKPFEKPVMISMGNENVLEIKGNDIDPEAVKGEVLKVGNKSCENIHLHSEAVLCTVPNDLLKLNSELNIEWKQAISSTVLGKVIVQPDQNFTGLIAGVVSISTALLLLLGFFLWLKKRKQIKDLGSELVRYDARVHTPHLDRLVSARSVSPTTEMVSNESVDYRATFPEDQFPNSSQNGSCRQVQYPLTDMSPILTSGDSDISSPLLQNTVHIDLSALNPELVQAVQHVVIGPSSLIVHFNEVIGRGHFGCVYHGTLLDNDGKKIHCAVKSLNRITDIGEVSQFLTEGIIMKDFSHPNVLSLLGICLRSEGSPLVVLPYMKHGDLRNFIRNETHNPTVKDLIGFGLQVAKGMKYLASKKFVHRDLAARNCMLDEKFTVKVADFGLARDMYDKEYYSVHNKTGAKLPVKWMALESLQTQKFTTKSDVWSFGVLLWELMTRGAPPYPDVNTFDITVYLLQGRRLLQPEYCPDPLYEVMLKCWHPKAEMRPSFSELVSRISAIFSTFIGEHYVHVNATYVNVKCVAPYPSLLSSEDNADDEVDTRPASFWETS", "conditions": "MET; 1 μM; read-out: % control"}},
  "data": [
    {"smiles": "CNc1nc(Nc2ccc(C(=O)N3CCC(N4CCOCC4)CC3)c3c2OCO3)nc2[nH]cc(Cl)c12", "note": "[Compound 75, (7-((5-chloro-4-(methylamino)-7H-pyrrolo[2,3-d]pyrimidin-2-yl)amino)benzo[d][1,3]dioxol-4-yl)(4-morpholinopiperidin-1-yl)methanone]", "values": [
      {"measurement": "remaining binding at 1 µM", "setting": "[1]", "value": 100, "unit": "%"},
      {"measurement": "remaining binding at 1 µM", "setting": "[2]", "value": 69, "unit": "%"},
      {"measurement": "remaining binding at 1 µM", "setting": "[3]", "value": 55, "unit": "%"},
      {"measurement": "remaining binding at 1 µM", "setting": "[4]", "value": 100, "unit": "%"},
      {"measurement": "remaining binding at 1 µM", "setting": "[5]", "value": 100, "unit": "%"},
      {"measurement": "remaining binding at 1 µM", "setting": "[6]", "value": 75, "unit": "%"},
      {"measurement": "remaining binding at 1 µM", "setting": "[7]", "value": 39, "unit": "%"},
      {"measurement": "remaining binding at 1 µM", "setting": "[8]", "value": 100, "unit": "%"}
    ]},
    {"smiles": "CNc1nc(Nc2ccc(S(=O)(=O)N3CCC(N4CCOCC4)CC3)cc2OC)nc2[nH]cc(Cl)c12", "note": "[Compound 12, 5-chloro-N2-(2-methoxy-4-((4-morpholinopiperidin-1-yl)sulfonyl)phenyl)-N4-methyl-7H-pyrrolo[2,3-d]pyrimidine-2,4-diamine]", "values": [
      {"measurement": "remaining binding at 1 µM", "setting": "[1]", "value": 100, "unit": "%"},
      {"measurement": "remaining binding at 1 µM", "setting": "[2]", "value": 62, "unit": "%"},
      {"measurement": "remaining binding at 1 µM", "setting": "[3]", "value": 57, "unit": "%"},
      {"measurement": "remaining binding at 1 µM", "setting": "[4]", "value": 90, "unit": "%"},
      {"measurement": "remaining binding at 1 µM", "setting": "[5]", "value": 97, "unit": "%"},
      {"measurement": "remaining binding at 1 µM", "setting": "[6]", "value": 100, "unit": "%"},
      {"measurement": "remaining binding at 1 µM", "setting": "[7]", "value": 75, "unit": "%"},
      {"measurement": "remaining binding at 1 µM", "setting": "[8]", "value": 100, "unit": "%"}
    ]},
    {"smiles": "CNc1nc(Nc2ccc(P3(=O)CCN(C4CCOCC4)CC3)cc2OC)nc2[nH]cc(Cl)c12", "note": "[Compound 77, 4-(4-((5-chloro-4-(methylamino)-7H-pyrrolo[2,3-d]pyrimidin-2-yl)amino)-3-methoxyphenyl)-1-(tetrahydro-2H-pyran-4-yl)-1,4-azaphosphinane 4-oxide]", "values": [
      {"measurement": "remaining binding at 1 µM", "setting": "[1]", "value": 100, "unit": "%"},
      {"measurement": "remaining binding at 1 µM", "setting": "[2]", "value": 71, "unit": "%"},
      {"measurement": "remaining binding at 1 µM", "setting": "[3]", "value": 70, "unit": "%"},
      {"measurement": "remaining binding at 1 µM", "setting": "[4]", "value": 98, "unit": "%"},
      {"measurement": "remaining binding at 1 µM", "setting": "[5]", "value": 100, "unit": "%"},
      {"measurement": "remaining binding at 1 µM", "setting": "[6]", "value": 67, "unit": "%"},
      {"measurement": "remaining binding at 1 µM", "setting": "[7]", "value": 46, "unit": "%"},
      {"measurement": "remaining binding at 1 µM", "setting": "[8]", "value": 100, "unit": "%"}
    ]}
  ]
}
